Experimental data as given in patent US4812482A, “Application of α-[[(2-hydroxy-1, 1-dimethyl-ethyl) amine] methyl] benzene methanol hydrochloride (EL-508) as a drug with antiinflammatory action” (Especialidades Latinas Medicamentos Universales, S.A. …, priority 1987, dated 1989).
Structures can show the parent of a compound that is named as a salt. Where two headings read alike, the source gives them in different places.

Columns and labels:
[1] = test system: vascular permeability (xylol); experiment: vascular/capillary permeability, xylol-induced extravasation; format: in vivo; conditions: for reduction of extravasation induced by xylol: solution for topical application
Text: (§1) In these tests Benzidamine HC1 lacked action.

carrageenin peritonitis = experiment: carrageenin-induced peritonitis, oral; format: in vivo; conditions: 100 mg/Kg
carrageenin oedema [2] = experiment: carrageenin oedema, topical application; format: in vivo; conditions: 6% aqueous or alcoholic solutions
Text: (§2) Further, it is to be noted that the antiinflammatory activity of EL-508, after its topical application, in 6% aqueous or alcoholic solutions in acute experimental processes, is summarized in the following table in comparison to 6% benzidamine HC1 as a reference drug: […]

croton oil oedema = experiment: croton oil oedema, topical application; format: in vivo; conditions: 6% aqueous or alcoholic solutions
Text: as §2

kaolin oedema [3] = experiment: kaolin oedema, topical application; format: in vivo; conditions: 6% aqueous or alcoholic solutions
Text: as §2

[4] = test system: vascular permeability (chloroform); experiment: vascular/capillary permeability, chloroform-induced extravasation; format: in vivo; conditions: for reduction of extravasation induced by chloroform: solution for topical application
Text: as §1

ovoalbumin oedema [5] = experiment: ovoalbumin oedema, topical application; format: in vivo; conditions: 6% aqueous or alcoholic solutions
Text: as §2

formalin peritonitis = experiment: formalin-induced peritonitis, oral; format: in vivo; conditions: 100 mg/Kg
ulcerogenic action = conditions: in vivo
[6] = test system: skin, conjunctive and vaginal mucous membranes; experiment: topical tolerance of the aqueous solution after repeated applications; format: in vivo
kaolin oedema [7] = experiment: kaolin-induced acute oedema, oral route; format: in vivo; conditions: rat, dose which produces 50% of oedema inhibition
Text: (§3) ED50 are indicated, these corresponding to the dose which produces 50% of oedema inhibition.

[8] = test system: skin, genital and conjunctival mucous membranes; set-up: species or system animals; conditions: in vivo
dogs = experiment: chronic toxicity over six months, dogs; format: in vivo; conditions: p.o., up to 100 mg/kg/day
[9] = acute and chronic toxicity and tolerance, summary; conditions: in vivo
[10] = test system: vaginitis of unknown ethiology or atrophic vaginitis and specific infectious vaginitis; experiment: clinical trials in vaginitis, vaginal solutions; format: in vivo, human; conditions: vaginal solutions at 5% and 0,2%
Description: Further, as to the pharmaceutical forms of solutions for vaginal applications at 5% and 0,2% various clinical trials were performed in patients with vaginitis of unknown ethiology or atrophic vaginitis and specific infectious vaginitis.

carrageenin abscess = experiment: carrageenin abscess, oral route; format: in vivo; conditions: rat, dose which produces 50% of oedema inhibition
Text: as §3

acute inflammation = experiment: experiments of acute inflammation, oral and topical, summary; format: in vivo
Text: In looking for a drug with intense topical antiinflammatory activity and good tolerance, the compound α-[[(2-hydroxy-1, 1-dimethyl-ethyl) amine]methyl]benzene methanol hydrochloride was syntheiszed and developed, and its chemical structure is completely different from that of conventional non-steroid anti-inflammatory drugs.

[11] = test system: skin, genital and conjunctival mucous membranes; experiment: topical tolerance in human volunteers; format: in vivo; conditions: solution
carrageenin oedema [12] = experiment: carrageenin-induced acute oedema, oral route; format: in vivo; conditions: rat, dose which produces 50% of oedema inhibition
Text: as §3

ovoalbumin oedema [13] = experiment: ovoalbumin-induced acute oedema, oral route; format: in vivo; conditions: rat, dose which produces 50% of oedema inhibition
Text: as §3

formol oedema = experiment: formol-induced acute oedema, oral route; format: in vivo; conditions: rat, dose which produces 50% of oedema inhibition
Text: as §3

[14] = test system: chronic inflammatory processes; experiment: experimental chronic inflammatory processes; format: in vivo
peripheral blood flow = experiment: peripheral blood flow; conditions: in vivo
inflammatory processes = experiment: therapeutic index in the different experimental models; format: in vivo; conditions: vs reference compounds
acute toxicity LD50, rat = conditions: in vivo
adrenalectomized rats = experiment: antiinflammatory effect in adrenalectomized rats; format: in vivo
rats = experiment: chronic toxicity over six months, rats; format: in vivo; conditions: p.o., up to 100 mg/kg/day
[15] = acute toxicity LD50, mouse; conditions: in vivo
[16] = test system: muscular-ligamentous pathological processes: luxations, sprains, contusions; experiment: clinical trial in muscular-ligamentous pathological processes, 6% aerosol; format: in vivo, human
Text: Several clinical trials have been carried out with different pharmaceutical compositions with α-[[(2-hydroxy-1, 1-dimethyl-ethyl) amine]methyl]benzene methanol hydrocholride (EL-508) as active principle. In the 6% aerosol pharmaceutical composition the therapeutic action was studied in muscular-ligamentous pathological processes: luxations, sprains, contusions and the like.

In the case of `CN(C)CCCOc1nn(Cc2ccccc2)c2ccccc12` [Benzidamine HCl, reference compound], the “reduction of extravasation induced by xylol” value [1] was “lacked action”, the “percentage of inhibition, Carrageenin perit.” value (carrageenin peritonitis) was 31,3% and the “Inhibition % of oedemas, carrageenin” value (carrageenin oedema [2]) was 7%. For the same compound, the “Inhibition % of oedemas, Croton oil” value (croton oil oedema) was 44%, the “Inhibition % of oedemas, Kaolin” value (kaolin oedema [3]) was 0% and the “reduction of extravasation induced by chloroform” value [4] was “lacked action”. For the same compound, the “Inhibition % of oedemas, ovoalbumin” value (ovoalbumin oedema [5]) was 42,0% and the “percentage of inhibition, Formalin perit.” value (formalin peritonitis) was 15,6%.

For `CC(C)(CO)NCC(O)c1ccccc1` (stereo not drawn) [EL-508, α-[[(2-hydroxy-1,1-dimethyl-ethyl)amine]methyl]benzene methanol hydrochloride], the “activity against capillary permeability increases induced by xylol” value ([1]; all the administration routes) was “highly active”, the “reduction of extravasation induced by xylol” value [1] was 50% and the ulcerogenic action (ulcerogenic action) was “slight ulcerogenic action”. The “percentage of inhibition, Carrageenin perit.” value (carrageenin peritonitis) was 70,8%, the “activity on carrageenin peritonitis compared with reference drugs” value (carrageenin peritonitis; equal doses) was “more active than the reference drugs” and the topical tolerance [6] was “well tolerated”. For the same compound, the ED50 (kaolin oedema [7]) was 44.9 mg/kg, the “Inhibition % of oedemas, carrageenin” value (carrageenin oedema [2]) was 48% and the topical tolerance [8] was “perfectly tolerated”. For the same compound, the “Inhibition % of oedemas, Croton oil” value (croton oil oedema) was 30%, the “undesirable effects in chronic toxicity study” value (dogs) was “no undesirable effects attributable to the product” and the “acute and chronic toxicity” value [9] was “acute and chronic toxicity was very low”. The “systematic and topical tolerance” value [9] was “systematic and topical tolerance has been demonstrated”, the undesirable side effects [9] was “no undesirable side effects” and the efficacy in vaginitis [10] was “more efficent in these indications than iodic povidone and placebo”. For the same compound, the ED50 (carrageenin abscess) was 9.4 mg/kg, the antiinflammatory activity (acute inflammation; oral and topical route, acute inflammation) was “great antiinflammatory activity” and the “antiinflammatory effect compared with reference products” value (acute inflammation; vs fenylbutazone, pyridil-3-methylamine salicilate, benzidamine salicilate, etc.) was “higher than the referenced products used”. The topical tolerance [11] was “perfectly tolerated”, the “Inhibition % of oedemas, Kaolin” value (kaolin oedema [3]) was 47,5% and the “activity against capillary permeability increases induced by chloroform” value ([4]; all the administration routes) was “highly active”. The “reduction of extravasation induced by chloroform” value [4] was 50%, the ED50 (carrageenin oedema [12]) was 29.8 mg/kg and the ED50 (ovoalbumin oedema [13]) was 16.7 mg/kg. The ED50 (formol oedema) was 21.7 mg/kg, the “activity on primary inflammatory phenomena” value [14] was “demonstrated its activity on primary inflammatory phenomena” and the “effect on peripheral blood flow” value (peripheral blood flow) was “did not modify at all peripheral blood flow”. For the same compound, the “Inhibition % of oedemas, ovoalbumin” value (ovoalbumin oedema [5]) was 40,6%, the therapeutic indices (inflammatory processes) was “considerably higher than for the reference compounds” and the LD50 (acute toxicity LD50, rat; ip) was 350 mg/kg. The LD50 (acute toxicity LD50, rat; iv) was 80 mg/kg, the LD50 (acute toxicity LD50, rat; po) was 2080 mg/kg and the antiinflammatory effect (adrenalectomized rats) was “antiinflammatory effect is direct, without central or hormaonal stimulus”. The “undesirable effects in chronic toxicity study” value (rats) was “no undesirable effects attributable to the product”, the LD50 ([15]; ip) was 295 mg/kg and the LD50 ([15]; iv) was 79 mg/kg. The LD50 ([15]; po) was 1020 mg/kg, the therapeutic action [16] was “therapeutic action higher than pyiridil-3-methyl amine salicylate and placebo” and the “percentage of inhibition, Formalin perit.” value (formalin peritonitis) was 28,1%. The “activity on formalin-induced peritonitis compared with reference drugs” value (formalin peritonitis; equal doses) was “more active than the reference drugs”.

In the case of `CCCCC1C(=O)N(c2ccccc2)N(c2ccccc2)C1=O` [Fenilbutazone, reference compound], the ED50 (carrageenin abscess) was 80 mg/kg, the ED50 (carrageenin oedema [12]) was 200 mg/kg and the “ED50 Ovoalbumin” value (ovoalbumin oedema [13]) was “Inactive”.

In the case of `CCCCC1C(=O)N(c2ccccc2)N(c2ccc(O)cc2)C1=O` (centres unmarked) [Oxyphenylbutazone, reference compound], the “percentage of inhibition, Carrageenin perit.” value (carrageenin peritonitis) was 58,8% and the “percentage of inhibition, Formalin perit.” value (formalin peritonitis) was 7,5%.
